# In patent US20070026090A1, “Treatment and prevention of inflammatory disease and mitochondrial dysfunction with high dose selenium” (priority 2003, published 2007):
# Entries after “also recorded” stand apart in the source; their conditions may differ.
# Key:
# [1] = tested on: 18S RNA and GAPDH; test: Housekeeping transcripts 18S and GAPDH in colon tissue (RT-PCR); format: in vivo, rat; conditions: supplemented rats (FIG. 7A)
# [2] = tested on: mtTFA; test: mtTFA mRNA in colon tissue (RT-PCR); format: in vivo, rat
# Experimental: Mitochondrial (mt) TFA, NRF1, and cytochrome c mRNA analysis: Total RNA was extracted from 50 to 100 mg tissue at a time using 1 ml of Tri Reagent® (Sigma-Aldrich Corp., St. Louis, Mo.) according to manufacturer's instructions. First strand cDNA synthesis was carried out using reverse-iTTM First Strand Synthesis from Advanced Biotechnologies (ABgene®, ABgene, Epsom, U.K.) was used according to the manufacturer's instructions. Target sequences were amplified in the PCR reaction as follows: each tube contained 37 ng of cDNA from cytochrome c, GAPDH, or 18S, 3 μl of specific primers, 12.5 μl of ready Mix and 6.5 μl water DEPC (for a total 25 μl in each tube).
# The PCR for cytochrome c, NRF1 and mtTFA was run at 95° C. for 5 min, 94° C. for 30 sec, 56° C. for 2 min, 72° C. for 1 min, back to stage 2 for 22, 26, 24 cycles, respectively, then 72° C. for 10 min, and 4° C. The products of the PCR were separated on a 1% agarose gel in TAE buffer with ethidium bromide. The electrophoresis took place in a BioRad device in 1×TAE buffer at 95 V for about 50 min (maximum mA). The size of the cDNA was determined by a 100-bp marker.
# Rat mtTFA: (Antisense) 5′-[…]-3′ (SEQ ID No. 15) corresponding to nucleotides 756 to 777 of rat mtMTFA (GenBank Accession No. AJ312746).
# (Sense): 5′-[…]-3′ (SEQ ID No. 16). The expected PCR product was 417 bp, the actual 417 bp.
# [3] = tested on: J774.2 macrophages; test: Intracellular ROS (H2O2) production, DCF fluorescence; format: cell-based, murine
# Experimental: Cell culture: Murine J774.2 macrophages (kindly provided by Prof. Dov Zipori from the Weizmann Institute of Science) were grown in RPMI medium supplemented with 10% (w/v) fetal calf serum, penicillin (100 U/ml), streptomycin (100 μg/ml) and 1× glutamine at 37° C. in a humidified atmosphere consisting of 95% air and 5% CO2. Experiments were performed on cells at 60% confluence.
# Intracellular Radical Oxygen Species (ROS) (H2O2): Intracellular ROS were detected using dihydrodichlorofluorescein (H2DCF-DA). Cells exposed to different treatments were washed three times with PBS. Cells were centrifuged (2000 RPM, 5 min), resuspended in PBS and incubated with 25 μM H2DCF-DA for 30 min at 37° C. To detect intracellular fluorescence, the fluorochrome-loaded cells were excited using a 488-nm argon-ion laser in a flow cytometer. The dichlorofluorescein (DCF) emission was recorded at 530 nm. Data were collected from at least 10,000 cells. Alternatively, DCF fluorescence was recorded using a microfluorometer plate reader (GENios, Tecan, Austria). Cells were washed twice with PBS, then 25 μM H2DCF-DA was added and cells incubated for 30 min at 37° C. Following an additional wash, cells were lysed with PBS-0.2% Triton-X 100. Total fluorescence was recorded and calibrated according to protein content.
# [4] = tested on: lipid peroxidation (MDA); test: Lipid peroxidation: MDA levels in colon tissue (HPLC); format: in vivo, rat; conditions: colitis-induced and uninduced rats, selenium supplemented group; data not presented
# Experimental: Lipid peroxidation—MDA levels: MDA levels in the colon tissue were determined as an indicator of lipid peroxidation using HPLC methodology (Valacchi et al., 2000). Briefly, tissue sections (100 mg) were homogenized in 1% Triton X 100 PBS. The suspended tissue was diluted 1:1 with 1% SDS solution and incubated with 250 ul TBA reagent (0.375 g TBA/100 ml) and 200 ul phosphoric acid (1.22 M) for 30 min at 100° C. Methanol ([…]) was added for protein precipitation and NaOH (20 ml, 1N) added for pH neutralization. After centrifugation, 100 ul clear supernatant was injected into a HPLC system, using a C185 m, 250 mm^a 4.6 mm internal diameter, reversed phase column (Alltech, Deerfield, Ill., USA). The mobile phase consisted of 60% methanol and 40% 50 mM NaH2PO4, pH 5.5. The flow rate was 0.9 ml/min and the detector was set to 532 nm. HPLC colarray ESA was used.
# [5] = tested on: mitochondrial DNA (D-loop region); test: Mitochondrial DNA analysis in the colon (D-loop PCR); format: in vivo, rat
# Experimental: Mitochondrial DNA analysis in the colon: Tissue content of mitochondrial DNA was determined using specific primers for the D-loop region in the mitochondrial DNA. Mitochondrial colon tissue genomic DNA, was prepared using the Promega Wizard Genomic DNA Purification Kit (Promega Corp, Madison, Wis.). Mitochondrial DNA was amplified by the PCR reaction: Twenty cycles were used for the amplification with 25 ng total tissue DNA as template. Saturation in intensity of PCR products was observed after 24 cycles.
# Primers: Left (sense) 5′-[…]-3′ (SEQ ID NO:1), corresponding to nucleotides 468 to 489 of rat mitochondrial D-loop region DNA (GenBank Accession No. X52757.1).
# Right (antisense) 5′-[…]-3′ (SEQ ID NO:2) corresponding to nucleotides 988 to 967 of rat mitochondrial D-loop DNA (GenBank Accession No. X52757.1).
# The expected PCR product was 520 bp. Actual PCR product was approximately 520 bp, measured on 1.25% agarose gel in TAE containing ethidium bromide.
# [6] = tested on: myocarditic Coxsackie virus B3; conditions: 5 ppm in the water; cited from earlier work
structure (smiles),measurement,setting,value
[Se] [selenium],18S and GAPDH transcription,[1],without effecting
same,"mtTFA levels in colon tissue, colitis-induced rats","[2]; 24 h after TNBS, supplemented (FIG. 17 lane 4), unsupplemented nearly absolute loss",surpass that of healthy control rats
same,"mtTFA levels in colon tissue, healthy rats",[2]; healthy supplemented rats (FIG. 17 lane 2),significantly enhances
same,ROS (H2O2) production over the concentration range,"[3]; 0.5-30 μM, resting J774.2 (FIG. 8A)",reduced ROS production in a dose-dependent manner
same,ROS production in activated macrophages,"[3]; LPS 10 ng/ml + INFγ 50 units/ml 24 h, then 10 μM (FIG. 16A)",reduces
same,decrease in peroxide production (DCF fluorescence),"[3]; at 30 μM, resting J774.2 (FIG. 8A)",> 30%
same,colon tissue lipid peroxidation (MDA content),[4],no changes
same,"mitochondrial DNA in colon tissue, colitis-induced rats","[5]; 24 h after TNBS, supplemented vs unsupplemented (FIG. 6)",intact mitochondrial DNA; also recorded: protects against the loss
same,"mitochondrial DNA in colon tissue, uninduced rats","[5]; TNBS−, Se suppl+ (FIG. 6)",No change
same,inflammatory lesions and necrosis,[6],no effect
